In US20260207759A1, “COMPOSITION OF CD40-BINDING MOLECULE AND PHARMACEUTICAL USE THEREOF” (SUZHOU SUNCADIA BIOPHARMACEUTICALS CO., LTD., priority 2022, published 2026):

Experiments:
[1] = tested on: human CD40 transgenic mice; assay: Mouse skin graft rejection model (anti-CD40-ADC); format: in vivo; details: 10 mpk ip, budesonide 0.12 mg/kg QD, dexamethasone 20 mpk QD
Source text: Male Balb/c mice, 6 weeks old, were purchased from the Laboratory Animal Management Department, Shanghai Institute of Planned Parenthood Research.
(§1) On day −2 of the experiment, the mice were intraperitoneally injected with the CD40 antagonistic antibody, anti-CD40-ADC, or glucocorticoid. On day 0 of the experiment, donor Balb/c mice and C57BL6/J mice were anesthetized with 4% chloral hydrate. The tails of the donor mice were removed, and full circles of skin, 1 cm in length, were isolated from the tails. The hair on the acceptor mice's back was removed, and an incision was made along the skin layer. An equal area of skin was removed while preserving the back fat and connective tissue. The donor skin was placed on the acceptor mice's incision site, and the incision was closed with glue. The mice were then placed back in cages to recover.
The mice were dosed according to the administration regimens in Table 27. After 7 days of recovery, the mouse skin survival was observed daily and rejection scores were recorded.

[2] = tested on: human CD40 transgenic mice; assay: Mouse skin graft rejection model (antibodies, tacrolimus combination); format: in vivo; details: FK506 3 mpk, alone or combined
Source text: Male Balb/c mice, 6 weeks old, were purchased from the Laboratory Animal Management Department, Shanghai Institute of Planned Parenthood Research. Housing environment: SPF; certification number: 20180006023393.
as §1, with “On day-2” for “On day −2”, “with tacrolimus FK506 or” for “with the”, “antagonistic antibodies.” for “antagonistic antibody, anti-CD40-ADC, or glucocorticoid.”
The mice were dosed according to the administration regimens in Table 16. After 7 days of recovery, the mouse skin survival was observed daily and rejection scores were recorded.

| SMILES | Skin graft survival rate (%), 10 days [1] | Skin graft survival rate (%), 15 days [1] | Skin graft survival rate (%), 20 days [1] | Skin graft score, 10 days ([1]; score 3 to 0) | Skin graft score, 15 days ([1]; score 3 to 0) | Skin graft score, 20 days ([1]; score 3 to 0) | Day-15 skin graft survival rate (%) ([2]; Table 20: antibody 10 mpk) | Skin graft score, 8 days ([2]; Table 22: 2F12-L4H2 10 mpk) | Skin graft score, 10 days ([2]; Table 22: 2F12-L4H2 10 mpk) | Skin graft score, 15 days ([2]; Table 22: 2F12-L4H2 10 mpk) | Skin graft score, 20 days ([2]; Table 22: 2F12-L4H2 10 mpk) |
| --- | --- | --- | --- | --- | --- | --- | --- | --- | --- | --- | --- |
| C[C@@H]1C[C@H]2[C@@H]3CCC4=CC(=O)C=C[C@]4(C)[C@@]3(F)[C@@H](O)C[C@]2(C)[C@@]1(O)C(=O)CO [Dexamethasone] | 88.9% | 88.9% | 66.7% | 2.33 | 2 | 1.56 | – | – | – | – | – |
| C=CC[C@@H]1/C=C(\C)C[C@H](C)C[C@H](OC)[C@H]2O[C@@](O)(C(=O)C(=O)N3CCCC[C@H]3C(=O)O[C@H](/C(C)=C/[C@@H]3CC[C@@H](O)[C@H](OC)C3)[C@H](C)[C@@H](O)CC1=O)[C@H](C)C[C@@H]2OC [FK506, tacrolimus] | – | – | – | – | – | – | 16.7% | 2.5 | 1.5 | 0.5 | 0 |
